Columns and labels:
[1] = test system: Escherichia coli ATCC 25922; details: E.coli, cited from earlier work
S. aureus = assay: Qualitative glucose consumption test, bacteria from plated cultures (Example 2, Table 6); assay type: cell-based; details: S. aureus from plated culture, antibiotic 256 μg/mL
Method: If the susceptibility score is a qualitative susceptibility score classifying the microorganism as “susceptible”, or “non-susceptible” to an antibiotic agent the answer could be given in as little as 1 hour.
Bacteria from plated cultures were suspended in cation adjusted Mueller-Hinton broth (SVA, Uppsala, Sweden) supplemented with glucose. Consequently, the concentration of microorgansims was typically two orders of magnitude higher as compared to Example 1. […] The tested microorganisms was one strain of E. faecium, two strains of E. coli and one S. aureus.

E. coli 17 = assay: as above; assay type: cell-based; details: E. coli 17 from plated culture, antibiotic 256 μg/mL
Method: (§1) If the susceptibility score is a qualitative susceptibility score classifying the microorganism as “susceptible”, or “non-susceptible” to an antibiotic agent the answer could be given in as little as 1 hour. Bacteria from plated cultures were suspended in cation adjusted Mueller-Hinton broth (SVA, Uppsala, Sweden) supplemented with glucose. Consequently, the concentration of microorgansims was typically two orders of magnitude higher as compared to Example 1. […] The tested microorganisms was one strain of E. faecium, two strains of E. coli and one S. aureus.

E. coli ATCC 25922 [2] = assay: as above; assay type: cell-based; details: E. coli ATCC 25922 from plated culture, antibiotic 256 μg/mL
Method: as §1

E. faecium [3] = assay: as above; assay type: cell-based; details: E. faecium from plated culture, antibiotic 256 μg/mL
Method: as §1

E. coli ATCC 25922 [4] = assay: Qualitative glucose consumption test, directly from positive BC-bottles (Example 2, Table 7); assay type: cell-based; details: E. coli ATCC 25922 from positive BC-bottle, antibiotic 256 μg/mL
[5] = test system: Enterococcus faecalis ATCC 29212; details: E.faecalis, cited from earlier work
E. faecium [6] = assay: Qualitative glucose consumption test, directly from positive BC-bottles (Example 2, Table 7); assay type: cell-based; details: E. faecium from positive BC-bottle, antibiotic 256 μg/mL
Method: With slightly lower microbe concentrations e.g. directly from positive BC-bottles (^˜10^9 CFU/ml) the results are shown at least within 2 hours, where E. coli ATCC 25922 is classified as susceptible and E. faecium is non-susceptible.

[7] = test system: Enterococcus faecalis (ATCC 29212); assay: Glucose consumption susceptibility test, blood culture diluted in MHB with glucose (Example 1); assay type: cell-based; design: glucose concentration, t = 0 / glucose concentration, t = 60 / glucose concentration, t = 120 / glucose concentration, t = 180 / glucose concentration, t = 240 / dC/dT (rate of change in glucose concentration): unit not given here; details: for F = the rate of change in glucose concentration in relation to the reference / dC/dT (rate of change in glucose concentration) / glucose concentration, t = 0 / glucose concentration, t = 60 / glucose concentration, t = 120 / glucose concentration, t = 180 / glucose concentration, t = 240: E. faecalis; for glucose concentration, t = 0: 0 minutes; for glucose concentration, t = 60: 60 minutes; for glucose concentration, t = 120: 120 minutes; for glucose concentration, t = 180: 180 minutes; for glucose concentration, t = 240: 240 minutes
In short: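 Blood cultures grown to positivity were diluted 1:100 in cation-adjusted Mueller-Hinton broth with 1.0 mg/mL glucose. Glucose was read by glucometer at 0–240 min.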

[8] = range obtained by EUCAST from ISO 20776-1: 2006
[9] = reference value, Mueller-Hinton agar, incubation 18±2 h, N/A = not susceptible

In the case of gentamicin, the “MIC, EUCAST, range in parentheses” value [1, 8] is given as “(0.25-1) ug/mL”, the “MIC, EUCAST” value [1, 9] is given as 0.5 µg/mL and the qualitative susceptibility score (S. aureus) is given as “susceptible”. The “glucose concentration, t = 15” value (S. aureus; t = 15) was 137, the “glucose concentration, t = 30” value (S. aureus; t = 30) was 139 and the “glucose concentration, t = 45” value (S. aureus; t = 45) was 131. For the same substance, the qualitative susceptibility score (E. coli 17) was “susceptible”, the “glucose concentration, t = 15” value (E. coli 17; t = 15) was 131 and the “glucose concentration, t = 30” value (E. coli 17; t = 30) was 126. The “glucose concentration, t = 45” value (E. coli 17; t = 45) was 123, the qualitative susceptibility score (E. coli ATCC 25922 [2]) was “susceptible” and the “glucose concentration, t = 15” value (E. coli ATCC 25922 [2]; t = 15) was 156. For the same substance, the “glucose concentration, t = 30” value (E. coli ATCC 25922 [2]; t = 30) was 155, the “glucose concentration, t = 45” value (E. coli ATCC 25922 [2]; t = 45) was 136 and the qualitative susceptibility score (E. faecium [3]) was “non-susceptible”. For the same substance, the “glucose concentration, t = 0” value (E. faecium [3]; t = 0) was 79, the “glucose concentration, t = 15” value (E. faecium [3]; t = 15) was 47 and the “glucose concentration, t = 0” value (E. coli ATCC 25922 [4]; t = 0) was 145. For the same substance, the “glucose concentration, t = 45” value (E. coli ATCC 25922 [4]; t = 45) was 155, the “glucose concentration, t = 60” value (E. coli ATCC 25922 [4]; t = 60) was 151 and the “glucose concentration, t = 90” value (E. coli ATCC 25922 [4]; t = 90) was 140. The “glucose concentration, t = 105” value (E. coli ATCC 25922 [4]; t = 105) was 135, the qualitative susceptibility score (E. coli ATCC 25922 [4]; within 2 hours) was “susceptible” and the “MIC, EUCAST, range in parentheses” value [5, 8] was “(4-16) ug/mL”. For the same substance, the “MIC, EUCAST” value [5, 9] was 8 µg/mL, the “glucose concentration, t = 0” value (E. faecium [6]; t = 0) was 144 and the “glucose concentration, t = 45” value (E. faecium [6]; t = 45) was 105. The “glucose concentration, t = 60” value (E. faecium [6]; t = 60) was 77, the “glucose concentration, t = 75” value (E. faecium [6]; t = 75) was 47 and the qualitative susceptibility score (E. faecium [6]; within 2 hours) was “non-susceptible”. The “F = the rate of change in glucose concentration in relation to the reference” value (shortened to “F = the rate of change”) ([7]; antibiotic 0.25 μg/mL) was 144%, the “dC/dT (rate of change in glucose concentration)” value ([7]; antibiotic 0.25 μg/mL) was 52 and the “glucose concentration, t = 0” value ([7]; antibiotic 0.25 μg/mL) was 142. The “glucose concentration, t = 60” value ([7]; antibiotic 0.25 μg/mL) was 156, the “glucose concentration, t = 120” value ([7]; antibiotic 0.25 μg/mL) was 143 and the “glucose concentration, t = 180” value ([7]; antibiotic 0.25 μg/mL) was 87. For the same substance, the “F = the rate of change” value ([7]; antibiotic 0.5 μg/mL) was 148%, the “dC/dT (rate of change in glucose concentration)” value ([7]; antibiotic 0.5 μg/mL) was 53 and the “glucose concentration, t = 0” value ([7]; antibiotic 0.5 μg/mL) was 146. For the same substance, the “glucose concentration, t = 60” value ([7]; antibiotic 0.5 μg/mL) was 160, the “glucose concentration, t = 120” value ([7]; antibiotic 0.5 μg/mL) was 138 and the “glucose concentration, t = 180” value ([7]; antibiotic 0.5 μg/mL) was 97. For the same substance, the “F = the rate of change” value ([7]; antibiotic 1 μg/mL) was 106%, the “dC/dT (rate of change in glucose concentration)” value ([7]; antibiotic 1 μg/mL) was 38 and the “glucose concentration, t = 0” value ([7]; antibiotic 1 μg/mL) was 145. The “glucose concentration, t = 60” value ([7]; antibiotic 1 μg/mL) was 150, the “glucose concentration, t = 120” value ([7]; antibiotic 1 μg/mL) was 138 and the “glucose concentration, t = 180” value ([7]; antibiotic 1 μg/mL) was 100. The “glucose concentration, t = 240” value ([7]; antibiotic 1 μg/mL) was 36, the “F = the rate of change” value ([7]; antibiotic 2 μg/mL) was 75% and the “dC/dT (rate of change in glucose concentration)” value ([7]; antibiotic 2 μg/mL) was 27. The “glucose concentration, t = 0” value ([7]; antibiotic 2 μg/mL) was 147, the “glucose concentration, t = 60” value ([7]; antibiotic 2 μg/mL) was 156 and the “glucose concentration, t = 120” value ([7]; antibiotic 2 μg/mL) was 143. The “glucose concentration, t = 180” value ([7]; antibiotic 2 μg/mL) was 110, the “glucose concentration, t = 240” value ([7]; antibiotic 2 μg/mL) was 75 and the “F = the rate of change” value ([7]; antibiotic 4 μg/mL) was 46%. For the same substance, the “dC/dT (rate of change in glucose concentration)” value ([7]; antibiotic 4 μg/mL) was 17, the “glucose concentration, t = 0” value ([7]; antibiotic 4 μg/mL) was 147 and the “glucose concentration, t = 60” value ([7]; antibiotic 4 μg/mL) was 154. For the same substance, the “glucose concentration, t = 120” value ([7]; antibiotic 4 μg/mL) was 151, the “glucose concentration, t = 180” value ([7]; antibiotic 4 μg/mL) was 118 and the “glucose concentration, t = 240” value ([7]; antibiotic 4 μg/mL) was 104. For the same substance, the “F = the rate of change” value ([7]; antibiotic 8 μg/mL) was 14%, the “dC/dT (rate of change in glucose concentration)” value ([7]; antibiotic 8 μg/mL) was 5 and the “glucose concentration, t = 0” value ([7]; antibiotic 8 μg/mL) was 143. The “glucose concentration, t = 60” value ([7]; antibiotic 8 μg/mL) was 155, the “glucose concentration, t = 120” value ([7]; antibiotic 8 μg/mL) was 134 and the “glucose concentration, t = 180” value ([7]; antibiotic 8 μg/mL) was 136. The “glucose concentration, t = 240” value ([7]; antibiotic 8 μg/mL) was 140, the “F = the rate of change” value ([7]; antibiotic 16 μg/mL) was 18% and the “dC/dT (rate of change in glucose concentration)” value ([7]; antibiotic 16 μg/mL) was 6. For the same substance, the “glucose concentration, t = 0” value ([7]; antibiotic 16 μg/mL) was 147, the “glucose concentration, t = 60” value ([7]; antibiotic 16 μg/mL) was 160 and the “glucose concentration, t = 120” value ([7]; antibiotic 16 μg/mL) was 152. For the same substance, the “glucose concentration, t = 180” value ([7]; antibiotic 16 μg/mL) was 155, the “F = the rate of change” value ([7]; antibiotic 32 μg/mL) was 3% and the “dC/dT (rate of change in glucose concentration)” value ([7]; antibiotic 32 μg/mL) was 1. For the same substance, the “glucose concentration, t = 0” value ([7]; antibiotic 32 μg/mL) was 143, the “glucose concentration, t = 60” value ([7]; antibiotic 32 μg/mL) was 151 and the “glucose concentration, t = 180” value ([7]; antibiotic 32 μg/mL) was 142. For the same substance, the “glucose concentration, t = 240” value ([7]; antibiotic 32 μg/mL) was 148 and the “MIC, Measured” value ([7]; E.faecalis, 80% threshold of reference rate of change, 60 to 180 minutes, N/A = not susceptible, no MIC value can be calculated) was 2 µg/mL.
